Measured values from the NIST ThermoML archive (doi:10.1021/je100864e).

Assay: mn = molality of the nth substance listed, in mol/kg
Settings: 101 kPa, Liquid

O=C([O-])CC(O)(CC(=O)[O-])C(=O)O.[Na+].[Na+] [disodium hydrogen citrate] + O
mass density [kg/m3]
Settings	288.15 K	293.15 K	298.15 K	303.15 K	308.15 K
m1 = 0.0095	1000.55	999.632	998.455	997.044	995.414
m1 = 0.0114	1000.84	999.92	998.74	997.324	995.691
m1 = 0.0133	1001.13	1000.21	999.021	997.605	995.97
m1 = 0.015	1001.38	1000.46	999.268	997.849	996.213
m1 = 0.0172	1001.71	1000.78	999.588	998.164	996.524
m1 = 0.0187	1001.93	1000.99	999.8	998.374	996.735
m1 = 0.021	1002.28	1001.35	1000.15	998.719	997.077
m1 = 0.0229	1002.56	1001.62	1000.42	998.99	997.344
m1 = 0.0267	1003.12	1002.18	1000.97	999.532	997.881
m1 = 0.0307	1003.73	1002.77	1001.56	1000.12	998.461
m1 = 0.0344	1004.28	1003.32	1002.1	1000.65	998.99
m1 = 0.0374	1004.73	1003.76	1002.54	1001.09	999.421
m1 = 0.057	1007.64	1006.63	1005.38	1003.9	1002.21
m1 = 0.0771	1010.58	1009.54	1008.25	1006.75	1005.03
m1 = 0.0953	1013.22	1012.15	1010.84	1009.31	1007.58
m1 = 0.1157	1016.16	1015.05	1013.71	1012.16	1010.4
m1 = 0.1332	1018.67	1017.54	1016.17	1014.59	1012.82
m1 = 0.1542	1021.64	1020.48	1019.09	1017.48	1015.68
m1 = 0.1773	1024.9	1023.7	1022.26	1020.63	1018.81
m1 = 0.1964	1027.57	1026.33	1024.88	1023.22	1021.38
m1 = 0.2144	1030.07	1028.81	1027.33	1025.66	1023.8
m1 = 0.2229	1031.25	1029.97	1028.48	1026.8	1024.93
m1 = 0.2509	1035.09	1033.78	1032.26	1030.54	1028.64
m1 = 0.283	1039.47	1038.11	1036.55	1034.8	1032.87
m1 = 0.2965	1041.3	1039.92	1038.34	1036.58	1034.63
m1 = 0.3375	1046.82	1045.39	1043.77	1041.96	1039.98
